Laboratory results as given in ChEMBL document CHEMBL1201862, “PubChem BioAssay data set” (2004).
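Tested at 5 concentrations; 48 h exposure; 96-well plates; endpoints linearly interpolated, else capped at highest concentration. GI50: concentration for 50% inhibition of growth.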 Calls of active or inactive are those of the source. No stated cut-off is given here; in the data, active = GI50 up to about 1.1 µM and inactive = higher.

Tests used:
Assay in all cases: NCI-60 cell line screen, 48 h
HCC 2998 = system: HCC 2998
HCT-116 = system: HCT-116
HL-60 = system: HL-60
HOP-62 = system: HOP-62
HOP-92 = system: HOP-92
HT-29 = system: HT-29
IGROV-1 = system: IGROV-1
KM12 = system: KM12
LOX IMVI = system: LOX IMVI
NCI-H460 = system: NCI-H460
OVCAR-3 = system: OVCAR-3
OVCAR-8 = system: OVCAR-8
SK-MEL-2 = system: SK-MEL-2
SN12C = system: SN12C
TK-10 = system: TK-10
CAKI-1 = system: CAKI-1
MDA-MB-435 = system: MDA-MB-435
NCI/ADR-RES = system: NCI/ADR-RES
T47D = system: T47D

Measured: GI50

Nc1nc(O)c([N+](=O)[O-])c(NCCOCP(=O)(O)O)n1
inactive: HCC 2998 > 100 µM | HCT-116 > 100 µM | HL-60 > 100 µM | HOP-62 > 100 µM | HOP-92 > 100 µM | HT-29 > 100 µM | IGROV-1 > 100 µM | KM12 > 100 µM | LOX IMVI > 100 µM | NCI-H460 > 100 µM | OVCAR-3 > 100 µM | OVCAR-8 > 100 µM | SK-MEL-2 > 100 µM | SN12C > 100 µM | TK-10 > 100 µM

OCC1NCC(O)C(O)C1O (centres undefined)
inactive: CAKI-1 > 100 µM | HCC 2998 > 100 µM | HCT-116 > 100 µM | HL-60 > 100 µM | HOP-62 > 100 µM | HOP-92 > 100 µM | HT-29 > 100 µM | IGROV-1 > 100 µM | KM12 > 100 µM | MDA-MB-435 > 100 µM | NCI-H460 > 100 µM | OVCAR-3 > 100 µM | OVCAR-8 > 100 µM | SN12C > 100 µM | TK-10 > 100 µM

O=c1[nH]c(=O)n(C2CC(O)C(CO)O2)cc1COCC(F)(F)F (centres undefined)
inactive: CAKI-1 > 100 µM | HCC 2998 > 100 µM | HL-60 > 100 µM | HOP-62 > 100 µM | HOP-92 > 100 µM | HT-29 > 100 µM | IGROV-1 > 100 µM | KM12 > 100 µM | LOX IMVI > 100 µM | NCI-H460 > 100 µM | OVCAR-3 > 100 µM | OVCAR-8 > 100 µM | SK-MEL-2 > 100 µM | SN12C > 100 µM | TK-10 > 100 µM

c1ccc(SCCCC(Sc2ccccc2)Sc2ccccc2)cc1
inactive: CAKI-1 > 100 µM | HCC 2998 > 100 µM | HCT-116 > 100 µM | HL-60 > 100 µM | HOP-62 > 100 µM | HOP-92 49.9 µM | IGROV-1 > 100 µM | KM12 > 100 µM | LOX IMVI > 100 µM | NCI-H460 > 100 µM | OVCAR-3 > 100 µM | OVCAR-8 > 100 µM | SK-MEL-2 > 100 µM | SN12C > 100 µM | TK-10 > 100 µM

S=P(N1CCCC1)(N1CC1)N1CC1
inactive: CAKI-1 49.4 µM | HCC 2998 > 100 µM | HCT-116 > 100 µM | HL-60 56.2 µM | HOP-62 > 100 µM | HOP-92 > 10 µM | HT-29 > 100 µM | IGROV-1 > 100 µM | KM12 > 100 µM | LOX IMVI > 100 µM | NCI-H460 32.4 µM | OVCAR-3 > 100 µM | OVCAR-8 > 100 µM | SK-MEL-2 > 100 µM | SN12C > 100 µM | TK-10 > 100 µM

C/C(CN1C(=O)c2ccccc2C1=O)=N\NS(=O)(=O)c1ccc(Br)cc1
inactive: CAKI-1 > 100 µM | HCC 2998 > 100 µM | HCT-116 > 100 µM | HL-60 > 100 µM | HOP-62 > 100 µM | HOP-92 74.8 µM | HT-29 > 100 µM | IGROV-1 > 100 µM | KM12 > 100 µM | LOX IMVI > 100 µM | NCI-H460 > 100 µM | OVCAR-3 > 100 µM | OVCAR-8 > 100 µM | SK-MEL-2 > 100 µM | SN12C > 100 µM | TK-10 > 100 µM

CC(C)(C)/N=C1/CC(C)(C)c2ccccc2/C(=N\c2ccccc2)S1
inactive: CAKI-1 40.2 µM | HCC 2998 35.2 µM | HCT-116 33.4 µM | HL-60 12.2 µM | HOP-62 44.7 µM | HT-29 35 µM | IGROV-1 48.3 µM | KM12 26.8 µM | LOX IMVI 18.6 µM | NCI-H460 30.1 µM | OVCAR-3 33.1 µM | OVCAR-8 41.8 µM | SK-MEL-2 34.4 µM | SN12C 29.4 µM | TK-10 75.9 µM

Cc1ccsc1/C=N/Nc1ccc2ccccc2n1
inactive: CAKI-1 17.5 µM | HCC 2998 24.1 µM | HCT-116 28.1 µM | HL-60 11.8 µM | HOP-62 19.8 µM | HOP-92 17.9 µM | HT-29 12.5 µM | IGROV-1 8.26 µM | KM12 32.1 µM | LOX IMVI 24.2 µM | MDA-MB-435 56.5 µM | NCI/ADR-RES 30.5 µM | OVCAR-3 10.4 µM | OVCAR-8 41.4 µM | SK-MEL-2 25.2 µM | SN12C > 100 µM | T47D > 100 µM | TK-10 19.9 µM

O=C1C[C@H]2CC3(CC[C@H]2CN1)OCCO3
inactive: CAKI-1 > 100 µM | HCC 2998 > 100 µM | HCT-116 > 100 µM | HL-60 > 100 µM | HOP-62 > 100 µM | HOP-92 > 100 µM | HT-29 > 100 µM | IGROV-1 > 100 µM | KM12 > 100 µM | LOX IMVI > 100 µM | NCI-H460 > 100 µM | OVCAR-3 > 100 µM | OVCAR-8 > 100 µM | SK-MEL-2 > 100 µM | SN12C > 100 µM | TK-10 > 100 µM

CCP(C)(=O)CC
inactive: CAKI-1 > 100 µM | HCC 2998 > 100 µM | HCT-116 > 100 µM | HL-60 > 100 µM | HOP-62 > 100 µM | HOP-92 > 100 µM | HT-29 > 100 µM | IGROV-1 > 100 µM | KM12 > 100 µM | LOX IMVI > 100 µM | NCI-H460 > 100 µM | OVCAR-3 > 100 µM | OVCAR-8 > 100 µM | SK-MEL-2 > 100 µM | SN12C > 100 µM | TK-10 > 100 µM

CC(C)C(Sc1nc(-c2ccccc2)c(-c2ccccc2)[nH]1)C(=O)N/N=C/c1ccc(Cl)cc1 (centres undefined)
inactive: CAKI-1 44.5 µM | HCT-116 15.8 µM | HL-60 26.3 µM | HOP-62 23.2 µM | HOP-92 21 µM | HT-29 14.9 µM | IGROV-1 24 µM | KM12 19.8 µM | LOX IMVI 15.5 µM | NCI-H460 22.7 µM | OVCAR-3 18.2 µM | OVCAR-8 19.7 µM | SK-MEL-2 17.5 µM | SN12C 17.5 µM | TK-10 21.5 µM

C#CCOCn1cnc2c(N)ncnc21
inactive: CAKI-1 > 100 µM | HCC 2998 > 100 µM | HCT-116 > 100 µM | HOP-62 > 100 µM | HOP-92 > 100 µM | HT-29 > 100 µM | IGROV-1 > 100 µM | KM12 > 100 µM | LOX IMVI > 100 µM | NCI-H460 > 100 µM | OVCAR-3 > 100 µM | OVCAR-8 > 100 µM | SK-MEL-2 > 100 µM | SN12C > 100 µM | TK-10 > 100 µM

O=C(c1ccc([N+](=O)[O-])cc1[N+](=O)[O-])N(/N=C/C=C/c1ccccc1)c1nnc(-c2ccccc2)c(-c2ccccc2)n1
inactive: CAKI-1 25.4 µM | HCC 2998 31.6 µM | HL-60 21.6 µM | HOP-62 86.1 µM | HOP-92 20.5 µM | HT-29 46 µM | IGROV-1 42.1 µM | KM12 34.8 µM | LOX IMVI 35.7 µM | NCI-H460 34 µM | OVCAR-3 21 µM | OVCAR-8 22.7 µM | SK-MEL-2 31 µM | SN12C 63.7 µM | TK-10 27.2 µM

O=C(/C=N/O)Nc1cccc(Cl)c1I
inactive: CAKI-1 32.3 µM | HCC 2998 > 100 µM | HCT-116 53.6 µM | HL-60 34.4 µM | HOP-62 83.4 µM | HT-29 > 100 µM | IGROV-1 26.5 µM | KM12 65.6 µM | LOX IMVI 96.8 µM | NCI-H460 > 100 µM | OVCAR-3 30.1 µM | OVCAR-8 81.5 µM | SK-MEL-2 24.9 µM | SN12C 47.8 µM | TK-10 44.7 µM

N#CC(NNC(=O)c1ccccc1O)c1ccc(O)cc1 (centres undefined)
inactive: CAKI-1 6 µM | HCT-116 3.33 µM | HL-60 5.32 µM | HOP-62 22.5 µM | HOP-92 3.48 µM | HT-29 28.1 µM | IGROV-1 3.96 µM | KM12 4.94 µM | LOX IMVI 5.83 µM | NCI-H460 3.79 µM | OVCAR-3 9.55 µM | OVCAR-8 7.66 µM | SK-MEL-2 2.67 µM | SN12C 18.6 µM | TK-10 39.5 µM

O=C(CC(=O)n1nc(-c2ccccc2)c(/N=N/c2ccccc2Cl)c1-c1ccccc1)Nc1ccc(Cl)cc1
inactive: CAKI-1 > 100 µM | HCC 2998 > 100 µM | HCT-116 > 41.3 µM | HL-60 > 42.8 µM | HOP-62 > 100 µM | HOP-92 > 100 µM | HT-29 > 54.6 µM | IGROV-1 > 100 µM | KM12 > 100 µM | LOX IMVI > 44.4 µM | NCI-H460 > 48.1 µM | OVCAR-3 > 100 µM | OVCAR-8 > 100 µM | SK-MEL-2 > 100 µM | SN12C > 100 µM | TK-10 > 96.2 µM

Cc1ccc(C2=C(c3ccccc3)C(Br)(c3ccccc3)C(c3ccccc3)=C2c2ccc(C)cc2)cc1
inactive: CAKI-1 > 100 µM | HCT-116 > 100 µM | HL-60 > 100 µM | HOP-62 > 100 µM | HOP-92 > 100 µM | HT-29 > 100 µM | IGROV-1 > 100 µM | KM12 > 100 µM | NCI-H460 > 100 µM | OVCAR-3 > 100 µM | OVCAR-8 > 100 µM | SK-MEL-2 > 100 µM | SN12C > 100 µM | TK-10 > 100 µM

CC1(C)C[C@@H]2C1CCC1(C)CC2(O)CC[C@H]1O (some centres undefined)
inactive: CAKI-1 > 100 µM | HL-60 > 100 µM | HOP-62 > 100 µM | HOP-92 > 100 µM | HT-29 > 100 µM | IGROV-1 > 100 µM | KM12 > 100 µM | LOX IMVI > 100 µM | MDA-MB-435 > 100 µM | NCI-H460 > 100 µM | NCI/ADR-RES > 100 µM | OVCAR-3 > 100 µM | OVCAR-8 > 100 µM | SK-MEL-2 > 100 µM | SN12C > 100 µM | T47D > 100 µM | TK-10 > 100 µM
